The values that follow come from US20240343747A1, “Heteroaryl compounds as inhibitors of TYK2, composition and application thereof” (Accro Bioscience (HK) Limited, priority 2021, published 2024).

A value given as a limit tells only on which side of the number the result lay.

One data set concerns TYK2/JAK2 pathway. Description: Selectivity: TYK2/JAK2 pathway, IL-12-induced p-STAT4 in mouse spleen cells, western blot. The class given is cell-based, mice. The method, then: The spleen of mice was isolated and ground into single cells with bent tweezers. The single cells of the spleen were centrifuged for 5 minutes (400 g), and erythrocytes were lysed with ACK solution and neutralized in 1640 medium, centrifuged for 5 minutes (400 g), and then re-suspended in 1640 medium. The spleen single cell suspension was counted and incubated to a 6-well plate (5 million/well), the compound to be tested was added for 2 hours, and then IL-12 (50 ng/mL) was added to stimulate cells for 1 h. The cells were collected and lysed with protein lysate. The protein was quantitatively tested by BCA kit. Finally, p-STAT4/STAT4 and internal reference protein β-actin were detected by western blot.

A further data set relates to JAK1/JAK2 pathway. Description: Selectivity: JAK1/JAK2 pathway, IFN-γ-induced p-STAT1 in HT-29 cells, western blot. The class given is cell-based. The note with it: IFN-γ 100 ng/mL. The method, then: HT-29 cells were digested by trypsin and suspended in DMEM medium and counted. The tested compounds were added into 6 well plates (400 000/per well) for 2 hours, then IFN-γ (100 ng/mL) was added to stimulate cells for 30 minutes. The cells were collected and lysed with protein lysate. The protein was quantitatively tested by BCA kit. Finally, p-STAT1/STAT1 and internal reference protein β-actin were detected by western blot.

In the next data set the test system is TYK2/JAK1 pathway. Description: Selectivity: TYK2/JAK1 pathway, IFN-α-induced p-STAT1 in human PBMC, western blot. The class given is cell-based. The method, then: Commercial human PBMC (peripheral blood mononuclear cells) were centrifuged (400 g) for 10 min, counted and planted on 6-well plates (5 million/well). Then, the compounds to be tested were added for 2 hours and IFN-α (100 ng/mL) was added to stimulate cells for 15 minutes. Protein lysate was used to lysate cells, and BCA kit was used for protein quantification. Finally, p-STAT1/STAT1, P-TYK2/TYK2 and internal reference protein B-Actin were detected by Western blot.

The target in another data set is JAK2 JH1 (Homo sapiens (Human), UniProt O60674). Description: Competitive binding assay (kinase-tagged phage, qPCR), JAK2 JH1. The procedure: For most assays, kinase-tagged T7 phage strains were prepared in an E. coli host derived from the BL21 strain. E. coli were grown to log-phase and infected with T7 phage and incubated with shaking at 32° C. until lysis. The lysates were centrifuged and filtered to remove cell debris. The remaining kinases were produced in HEK-293 cells and subsequently tagged with DNA for qPCR detection. Streptavidin coated magnetic beads were treated with biotinylated small molecule ligands for 30 minutes at room temperature to generate affinity resins for kinase assays. The liganded beads were blocked with excess biotin and washed with blocking buffer (SeaBlock (Pierce), 1% BSA, 0.05% Tween 20, 1 mM DTT) to remove unbound ligand and to reduce non-specific binding. […] Test compounds were prepared as 111X stocks in 100% DMSO. Dissociation constants (Kds) were determined using an 11-point 3-fold compound dilution series with three DMSO control points. […] The kinase concentration in the eluates was measured by qPCR.
An 11-point 3-fold serial dilution of each test compound was prepared in 100% DMSO at 100× final test concentration and subsequently diluted to 1× in the assay (final DMSO concentration=1%). Most Kds were determined using a compound top concentration=30,000 nM. […]
Binding constants (Kds) were calculated with a standard dose-response curve using the Hill equation: […]

Data set [1] can be described thus: Metabolic stability test, human liver microsomes. The class given is in vitro ADME. The method, then:
• 1. Buffer A: 1.0 L of 0.1 M monobasic Potassium Phosphate buffer containing 1.0 mM EDTA • Buffer B: 1.0 L of 0.1 M Dibasic Potassium Phosphate buffer containing 1.0 mM EDTA • Buffer C: 0.1 M Potassium Phosphate buffer, 1.0 mM EDTA, at about pH 7.4 by titrating 700 mL of Buffer B with Buffer A while monitoring with the pH meter. • 2. Reference compounds (Ketanserin) and test compounds spiking solution: • 500 µM spiking solution: add 10 μL of 10 mM DMSO stock solution into […] ACN. • 1.5 µM spiking solution in microsomes (0.75 mg/mL): add 1.5 μL of 500 µM spiking solution and 18.75 μL of 20 mg/mL liver microsomes into 479.75 μL of Buffer C on ice. • 3. Prepare NADPH stock solution (6 mM) by dissolving NADPH into buffer C. • 4. Dispense 30 μL of 1.5 µM spiking solution containing 0.75 mg/mL microsomes solution to the assay plates designated for different time points (0-, 5-, 15-, 30-, 45-min) on ice. • 5. For 0-min, add 135 μL of ACN containing IS to the wells of 0-min plate and then add 15 μL of NADPH stock solution (6 mM). • 6. Pre-incubate all other plates at 37° C. for 5 minutes. • 7. Add 15 μL of NADPH stock solution (6 mM) to the plates to start the reaction and timing. • 8. At 5-min, 15-min, 30-min, and 45-min, add 135 μL of ACN containing IS to the wells of corresponding plates, respectively, to stop the reaction. • 9. After quenching, shake the plates at the vibrator (IKA, MTS 2/4) for 10 min (600 rpm/min) and then centrifuge at 5594 g for 15 min (Thermo Multifuge×3R). • 10. Transfer 50 μL of the supernatant from each well into a 96-well sample plate containing 50 μL of ultra pure water (Millipore, ZMQS50F01) for LC/MS analysis.

Chain of JAK2 JH1 (O60674 849-1124): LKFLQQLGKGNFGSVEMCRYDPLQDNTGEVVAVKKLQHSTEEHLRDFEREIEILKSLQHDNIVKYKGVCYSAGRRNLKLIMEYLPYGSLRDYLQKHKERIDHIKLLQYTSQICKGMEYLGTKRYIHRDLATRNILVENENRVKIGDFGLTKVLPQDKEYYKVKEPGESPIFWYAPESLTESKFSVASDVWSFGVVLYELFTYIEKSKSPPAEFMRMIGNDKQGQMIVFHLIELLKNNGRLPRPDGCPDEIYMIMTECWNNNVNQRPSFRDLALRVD

Turning to `CCC(=O)c1cnc(NC(=O)C2CC2)cc1Nc1cccc(-c2cc(P(=O)(C3CC3)C3CC3)n(C)n2)c1OC` [Compound B37, N-(4-((3-(5-(dicyclopropylphosphoryl)-1-methyl-1H-pyrazol-3-yl)-2-methoxyphenyl)amino)-5-propionylpyridin-2-yl)cyclopropanecarboxamide], the “inhibition of TYK2/JAK2 pathway compared with BMS986165” value with TYK2/JAK2 pathway (IL-12) is given as “better than BMS986165”. The “inhibition of downstream STAT4 phosphorylation induced by IL-12” value in the data set on TYK2/JAK2 pathway (IL-12 50 ng/mL, western blot) was “effectively inhibit”. Also, the “effect on downstream STAT1 phosphorylation induced by IFN-γ” value in the data set on JAK1/JAK2 pathway was “no effect”. Further, the “inhibition of TYK2/JAK1 pathway compared with BMS986165” value in the data set on TYK2/JAK1 pathway (IFN-α) is recorded as “better inhibitory activity than BMS986165”. The “inhibition of downstream STAT1 phosphorylation induced by IFN-α” value in the data set with TYK2/JAK1 pathway (IFN-α 100 ng/mL, western blot) is reported as “effectively inhibit”. The compound further had a Kd on JAK2 JH1 above 30 µM.

In the case of `CCC(=O)c1cnc(NC(=O)C2CC2)cc1Nc1cccc(-c2cc(P(C)(C)=O)n(C)n2)c1OC` [Compound B2, N-(4-((3-(5-(dimethylphosphoryl)-1-methyl-1H-pyrazol-3-yl)-2-methoxyphenyl)amino)-5-propionylpyridin-2-yl)cyclopropanecarboxamide], the “stability in human liver microsomes (in words)” value in data set [1] (conclusion from Table 5) is listed as “good stability”. For the same compound, the “CL HLM” value in data set [1] (human liver microsomes) is listed as below 8.6 mL/min/kg. Also, the half-life at 1 μM in data set [1] (pH 7.4, human liver microsomes, read-out: T1/2 HLM) was above 2.42 h.
